Test results published in US20140335532A1, “HUMAN SKIN SAMPLE METHODS AND MODELS FOR VALIDATING HYPOTHESES FOR MECHANISMS DRIVING SKIN PIGMENTATION” (The Procter & Gamble Company, priority 2011, published 2014).

Columns and labels:
tone genes of interest = experiment: Ex-vivo tissue culture exposed to compounds known to stimulate the pigmentation pathway, tone gene regulation; type: cell-based, human; settings: p≦0.1, minimum of 2-10 experiments each, FIG. 16
9 epidermal tone genes [1] = experiment: Endogenously driven ex-vivo human skin tissue, transcription of epidermal tone genes vs untreated control; type: cell-based; settings: for # Genes (out of 9) with p ≦ 0.1: endogenously driven tissue sample, 37° C. and 70% humidity, epidermal genes regulated vs untreated control, 2-10 experiments each
Description: Referring to FIGS. 11 to 15, examples are shown for the regulation of the 9 epidermal tone genes against an untreated control in an endogenously driven ex-vivo tissue system at 37° C. and 70% humidity for niacinamide, hexamidine, N-Acetyl glucosamine, kojic acid, tranexamic acid, and undecylenoyl phenylalanine (2-10 experiments each). […] For instance, out of the 9 epidermal genes, at least one compound (Hexamidine) regulated 9 genes (with a statistical significance of p<0.1 or better) while two compounds regulated 5 or fewer genes (with a p<0.1 or better). Table 1 below summarizes the number of epidermal genes regulated by certain materials in an endogenously driven tissue sample with a statistical significance of p≦0.1.
Culturing involved setting up culture plates: putting 2.5 ml of media or treatment into each well of a 6-well tissue plate, adding one Millicell culture insert to each well, and putting 100 μl of 1×DMEM on the center of each insert membrane. Squares were selected randomly placed into each of the inserts (one piece of skin per insert), on top of the media on the membrane. The plates were stored at either 33° C. (though an additional non-limiting example would be 37° C. depending on the experiment endpoint). As a control, baseline tissue measurements were collected from excess waste (cryogenics were used for snap freezing). Baseline biopsy collection involved two 4 mm punches for MTT; One 4 mm punch was snap frozen in OCT for fresh histology; One 4 mm punch was fixed in 10% formalin and sent out for paraffin embedding. PCR baseline was also be taken with six 4 mm punches snap frozen in liquid nitrogen.
Culture and treatment of the model comprised replicates of n=5 (though replicates of additional quantities may be used such as n=6). Media Dosing of skin involved solubilizing used in appropriate solvents (including PBS, Media, alcohol, and DMSO; in using DMSO, the final concentration in the plate was restricted to 0.01%). Appropriate dilutions were made for treatment: 15 ml of media were required per plate per day for treatment, with 2.5 ml of media required per well under the cell culture insert. Media was pre-warmed and changed every day during the experiment.
Skin was topically dosed. To do so, formulation for a compound of interest was obtained. Variation was minimized by having a vehicle that was as close to test formula as possible (making sure glycerin concentration was the same, determining if there was a vitamin package in the formula, determining if there was niacimamide; all of these were the same between the vehicle control formula and the test formula) (in ideal embodiments, the only difference is the unknown test compound). The skin was treated using a positive displacement pipette with 20 ul of formulation. A sterile cotton swab was used after application to spread and rub in the formula. Media was changed every day. The media was aspirated and replaced with fresh warmed media at a level of 2.5 ml per well.
For cryopreparation and extraction the following equipment was obtained and prepared: 2 ml round bottom tubes were prepared with 1 ml of TRIZOL as was a 5 mm stainless steel bead for each sample; a dry ice bucket was obtained and liquid nitrogen was placed in the bucket. Biopsy punches were maintained on dry ice, and samples remained frozen. Cryobags and covaris cryoprep were used in freeze fracturing of samples. To freeze fracture the samples, biopsies were placed in a cryo bag (2 per sample) and dipped in liquid nitrogen, then placed in cryoprep (setting 4). The sample bag was taken out and dipped back into nitrogen. A flattened disk was removed and placed into corresponding 2 ml tubes with TRIZOL. The disk was kept frozen in the TRIZOL. The tube was closed and snap frozen, and the whole tube was placed in liquid nitrogen. After repeating the process with all the samples, samples were placed into boxes and stored at −80 until the next step. […]

9 epidermal tone genes [2] = experiment: Stem Cell Factor/Endothelin 1 driven ex-vivo human skin tissue, transcription of epidermal tone genes vs untreated control; type: cell-based; settings: Stem Cell Factor/Endothelin 1 driven tissue sample; 37° C. and 70% humidity; out of 9 epidermal genes; 2-10 experiments each
Description: Referring to FIGS. 19 to 23, examples (of 2-10 experiments each) are shown for the regulation of the 9 epidermal tone genes against an untreated control in ex-vivo tissue driven by the combination of Stem Cell Factor and Endothelin at 37° C. and 70% humidity for niacinamide, hexamidine, N-Acetyl glucosamine, kojic acid, tranexamic acid, and undecylenoyl phenylalanine. […] For instance, out of the 9 epidermal genes, at least one compound (undecylenoyl phenylalanine) regulated 5 genes (with a statistical significance of p<0.1 or better) while two compounds regulated 2 or fewer genes (with a p<0.1 or better). Table 2 below summarizes the number of epidermal genes regulated by certain materials in a Stem Cell Factor/Endothelin 1 driven tissue sample with a statistical significance of p≦0.1.
In example embodiments, tone is driven by application of stem cell factor and/or endothelin (with skin preparation, culturing, and mRNA processing being completed as previously described). In an example embodiment, skin samples are placed within 6-well plates, with 2.5 ml of media per well. A concentration of eighty nanograms per milliliter of stem cell factor as well as eighty nanograms per milliliter of endothelin was applied to tissue in the wells, with the media being refreshed daily. The culture was maintained for seven days. Inhibitors of tone-related genes were applied; hexamidine and undecylenoyl phenylalanine were applied topically and daily in vehicles at 0.1% and 0.25%, respectively.

tone genes = experiment: Human Ex-vivo Pre-Clinical Model, fold regulation of tone genes by clinical formulations; type: cell-based; settings: FIGS. 25a and 25b
Description: FIGS. 25a and 25b show two respective tables showing ex-vivo model fold regulation changes indicating significant down-regulation by clinical formulations in the Human Ex-vivo Pre-Clinical Model.
(§1) The ex-vivo screening method has provided identification of agents consistent with in-vitro studies and which have proven positive clinically. One such example is hexyldecanol. […] For example, total melanin assays were performed using a rat melanoma line known to produce melanin. […] Therefore, promising tone agents such as hexyldecanol identified from the in-vitro model and the ex-vivo model have been tested in clinical settings.

[3] = tested on: rat melanoma line known to produce melanin; experiment: Total melanin assay in melanoma cell line; type: cell-based; settings: rat melanoma cell cultures
Description: as §1

[4] = tested on: facial skin pigmentation (spots, melanin evenness); experiment: 9-week clinical study, randomized, double-blind, vehicle-controlled, split-face; type: in vivo, human; settings: 9-week study
From the text: For example, hexyldecanol was compared to vehicle controls and positive controls (5% Niacinamide+1% undecylenoyl phenylalanine) through a 9-week period. Specifically the trial included a 9-week clinical study with a randomized, double-blind, round robin, vehicle-controlled, split-face design, including one week normalization period whereby 330 subjects received test product.

α-MSH
Regulation of tone genes of interest (tone genes of interest): up regulate one or more tone genes of interest

Stem Cell Factor: compound known to stimulate the pigmentation pathway; paracrine agent
Regulation of tone genes of interest (tone genes of interest): up regulate one or more tone genes of interest

NC(=O)c1cccnc1 [Niacinamide, niacinamide]
Down-regulation of tone genes by donor Fitzpatrick type (9 epidermal tone genes [1]; 5% niacinamide, Fitzpatrick V donor vs two Fitzpatrick III donors, FIG. 1): more challenging to down-regulate | # Genes (out of 9) with p ≦ 0.1 (9 epidermal tone genes [1]): 7 | # of Genes with p ≦ 0.1 (9 epidermal tone genes [2]): 3

CCCCCCCCC(CO)CCCCCC (centres unmarked) [Hexyldecanol, hexyldecanol]
Ex-vivo model gene regulation (tone genes): down-regulation | Total melanin produced as compared to controls [3]: decreased | Overall clinical outcome vs vehicle ([4]; 330 subjects, significant if p<0.10 (1-sided) vs. vehicle): statistically better than vehicle controls | Melanin evenness ([4]; versus the vehicle control): significantly different from controls | Spot area fraction (total area of spots per face) ([4]; versus vehicle control group): significantly different from controls

C=CCCCCCCCCC(=O)N[C@@H](Cc1ccccc1)C(=O)O [Undecylenoyl phenylalanine, undecylenoyl phenylalanine]
# Genes (out of 9) with p ≦ 0.1 (9 epidermal tone genes [1]): 3 | # of Genes with p ≦ 0.1 (9 epidermal tone genes [2]): 5

N=C(N)c1ccc(OCCCCCCOc2ccc(C(=N)N)cc2)cc1 [Hexamidine, hexamidine]
# Genes (out of 9) with p ≦ 0.1 (9 epidermal tone genes [1]): 9 | # of Genes with p ≦ 0.1 (9 epidermal tone genes [2]): 4

O=c1cc(CO)occ1O [Kojic Acid, kojic acid]
# Genes (out of 9) with p ≦ 0.1 (9 epidermal tone genes [1]): 5 | # of Genes with p ≦ 0.1 (9 epidermal tone genes [2]): 2

tranexamic acid
# Genes (out of 9) with p ≦ 0.1 (9 epidermal tone genes [1]): 7 | # of Genes with p ≦ 0.1 (9 epidermal tone genes [2]): 3

CC(=O)N[C@H]1C(O)O[C@H](CO)[C@@H](O)[C@@H]1O (some centres unmarked) [NAG, N-Acetyl glucosamine]
# Genes (out of 9) with p ≦ 0.1 (9 epidermal tone genes [1]): 6 | # of Genes with p ≦ 0.1 (9 epidermal tone genes [2]): 1
